The record followed here is patent publication US12503436B2, “Compounds and compositions for treating conditions associated with STING activity” (NOVARTIS PHARMA AG, priority 2021, dated 2025).

The EC50 is the concentration needed to bring the measured effect to its halfway point.

SMILES strings stand for the structures.

The target in this experiment is STING (Homo sapiens, UniProt Q86WV6, G230A/H232R/R293Q/R71H). As to the kind of experiment: STING reporter assay in THP1-Dual KO-IFNAR2 cells (2′3′cGAMP stimulation, luciferase reporter). In kind it is cell-based. Conditions: 15 μM 2′3′cGAMP stimulation, 24 h, read-out: Pharmaron, THP1_IFNAR2 STING 24 h Luci Normalized: GeoMean EC50. The procedure, abridged: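 EC50 from secreted luciferase (QUANTI-Luc Plus luminescence of supernatant) after 24 h at 37 °C, 5% CO2. Cells: THP1-Dual KO-IFNAR2, treated with compound (0.0017-100 μM final) plus lipofected 2′3′cGAMP at 15 μM final.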
Sequence of STING (Q86WV6 whole entry R71H/G230A/H232R/R293Q): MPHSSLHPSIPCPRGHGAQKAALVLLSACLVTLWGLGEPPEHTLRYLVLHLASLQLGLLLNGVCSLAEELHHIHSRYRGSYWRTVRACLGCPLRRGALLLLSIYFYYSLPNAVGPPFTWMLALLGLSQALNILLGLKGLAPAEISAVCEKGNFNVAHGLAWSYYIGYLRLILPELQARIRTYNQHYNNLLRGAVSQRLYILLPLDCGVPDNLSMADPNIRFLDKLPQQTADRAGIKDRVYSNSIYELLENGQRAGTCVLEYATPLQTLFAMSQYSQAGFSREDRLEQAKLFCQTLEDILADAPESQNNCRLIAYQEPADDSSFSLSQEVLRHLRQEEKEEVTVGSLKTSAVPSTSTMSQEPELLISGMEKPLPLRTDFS
For orientation: In a reporter assay the amount or activity of a reporter protein is the signal.
Consider `CC(C)(C)CC(=O)Nc1c[nH]c2ccc(OCc3ccc(C(F)(F)F)cc3)cc12` [Compound 314, 3,3-dimethyl-N-(5-((4-(trifluoromethyl)benzyl)oxy)-1H-indol-3-yl)butanamide], for which the EC50 lay in the range of 200 to 1000 nM. Next, `O=C(Nc1c[nH]c2ccc(OCc3ccc(C(F)(F)F)cc3)cc12)C1(C(F)(F)F)CC1` [Compound 315, 1-(trifluoromethyl)-N-(5-((4-(trifluoromethyl)benzyl)oxy)-1H-indol-3-yl)cyclopropane-1-carboxamide]: 200 to 1000 nM; `CC(C)(C)C(=O)Nc1c[nH]c2ccc(OCc3ccc(C(F)(F)F)cc3)cc12` [Compound 316, N-(5-((4-(trifluoromethyl)benzyl)oxy)-1H-indol-3-yl)pivalamide]: 200 to 1000 nM; `O=C(Nc1c[nH]c2ccc(OCc3ccc(C(F)(F)F)cc3)cc12)C1CC1` [Compound 317, N-(5-((4-(trifluoromethyl)benzyl)oxy)-1H-indol-3-yl)cyclopropanecarboxamide]: 200 to 1000 nM.

As for `O=C(Nc1c[nH]c2ccc(OCc3ccc(C(F)(F)F)cc3)cc12)C1CC1(F)Cl` (stereo not drawn) [Compound 318, 2-chloro-2-fluoro-N-(5-((4-(trifluoromethyl)benzyl)oxy)-1H-indol-3-yl)cyclopropane-1-carboxamide], the 50% effective concentration (EC50) lay in the range of 200 to 1000 nM. Then `COCC1(C(=O)Nc2c[nH]c3ccc(OCc4ccc(C(F)(F)F)cc4)cc23)CC1` [Compound 319, 1-(methoxymethyl)-N-(5-((4-(trifluoromethyl)benzyl)oxy)-1H-indol-3-yl)cyclopropane-1-carboxamide], with 200 to 1000 nM; and `C[C@H]1C[C@H](C(=O)Nc2c[nH]c3ccc(OCc4ccc(C(F)(F)F)cc4)cc23)C1` [Compound 320, trans-3-methyl-N-(5-((4-(trifluoromethyl)benzyl)oxy)-1H-indol-3-yl)cyclobutane-1-carboxamide], with 200 to 1000 nM; and `C[C@H]1C[C@@H](C(=O)Nc2c[nH]c3ccc(OCc4ccc(C(F)(F)F)cc4)cc23)C1` [Compound 321, cis-3-methyl-N-(5-((4-(trifluoromethyl)benzyl)oxy)-1H-indol-3-yl)cyclobutane-1-carboxamide], with 200 to 1000 nM.

For the molecule `O=C(Nc1c[nH]c2ccc(OCc3ccc(C(F)(F)F)cc3)cc12)C1CC(Cl)C1` (stereo not drawn) [Compound 322, 3-chloro-N-(5-((4-(trifluoromethyl)benzyl)oxy)-1H-indol-3-yl)cyclobutane-1-carboxamide], the EC50 was in the range of 200 to 1000 nM.

In the case of `CC1(F)CC(C(=O)Nc2c[nH]c3ccc(OCc4ccc(C(F)(F)F)cc4)cc23)C1` (stereo not drawn) [Compound 323, 3-fluoro-3-methyl-N-(5-((4-(trifluoromethyl)benzyl)oxy)-1H-indol-3-yl)cyclobutane-1-carboxamide], the EC50 lay within 200 to 1000 nM.

`O=C(Nc1c[nH]c2ccc(OCc3ccc(C(F)(F)F)cc3)cc12)[C@H]1C[C@@H](O)C1` [Compound 324, cis-3-hydroxy-N-(5-((4-(trifluoromethyl)benzyl)oxy)-1H-indol-3-yl)cyclobutane-1-carboxamide]: the EC50 is 200 to 1000 nM. Then `CC1(C(=O)Nc2c[nH]c3ccc(OCc4ccc(C(F)(F)F)cc4)cc23)CCCO1` (stereo not drawn) [Compound 325, 2-methyl-N-(5-((4-(trifluoromethyl)benzyl)oxy)-1H-indol-3-yl)tetrahydrofuran-2-carboxamide], with 200 to 1000 nM. Then `O=C(Nc1c[nH]c2ccc(OCc3ccc(C(F)(F)F)cc3)cc12)C1CC(F)C1` (stereo not drawn) [Compound 326, 3-fluoro-N-(5-((4-(trifluoromethyl)benzyl)oxy)-1H-indol-3-yl)cyclobutane-1-carboxamide], with 200 to 1000 nM. Then `CC1(C)CC(C(=O)Nc2c[nH]c3ccc(OCc4ccc(C(F)(F)F)cc4)cc23)C1` [Compound 327, 3,3-dimethyl-N-(5-((4-(trifluoromethyl)benzyl)oxy)-1H-indol-3-yl)cyclobutane-1-carboxamide], with 200 to 1000 nM; and `CC1(C(=O)Nc2c[nH]c3ccc(OCc4ccc(C(F)(F)F)cc4)cc23)CCOCC1` [Compound 328, 4-methyl-N-(5-((4-(trifluoromethyl)benzyl)oxy)-1H-indol-3-yl)tetrahydro-2H-pyran-4-carboxamide], with 200 to 1000 nM; and `O=C(Nc1c[nH]c2ccc(OCc3ccc(C(F)(F)F)cc3)cc12)C1CC(O)C1` (stereo not drawn) [Compound 329, 3-hydroxy-N-(5-((4-(trifluoromethyl)benzyl)oxy)-1H-indol-3-yl)cyclobutane-1-carboxamide], with 200 to 1000 nM. Turning to `O=C(Nc1c[nH]c2ccc(OCc3ccc(C(F)(F)F)cc3)cc12)C1CC1(F)F` (stereo not drawn) [Compound 330, 2,2-difluoro-N-(5-((4-(trifluoromethyl)benzyl)oxy)-1H-indol-3-yl)cyclopropane-1-carboxamide], the EC50 lay within 200 to 1000 nM. Take `O=C(Nc1c[nH]c2ccc(OCc3ccc(C(F)(F)F)cc3)cc12)C1(F)CC1` [Compound 331, 1-fluoro-N-(5-((4-(trifluoromethyl)benzyl)oxy)-1H-indol-3-yl)cyclopropane-1-carboxamide]: the EC50 was 1000 to 5000 nM.

Take `COCC1(C(=O)Nc2c[nH]c3ccc(O[C@H]4C[C@@H](c5ccc(C(F)(F)F)cc5)C4)cc23)CC1` [Compound 333, 1-(methoxymethyl)-N-(5-(cis-3-(4-(trifluoromethyl)phenyl)cyclobutoxy)-1H-indol-3-yl)cyclopropane-1-carboxamide]: the EC50 lay within 1000 to 5000 nM. Then `C[C@H]1C[C@H](C(=O)Nc2c[nH]c3ccc(O[C@H]4C[C@@H](c5ccc(C(F)(F)F)cc5)C4)cc23)C1` [Compound 334, trans-3-methyl-N-(5-(cis-3-(4-(trifluoromethyl)phenyl)cyclobutoxy)-1H-indol-3-yl)cyclobutane-1-carboxamide], with 40 to 200 nM; and `C[C@H]1C[C@@H](C(=O)Nc2c[nH]c3ccc(O[C@H]4C[C@@H](c5ccc(C(F)(F)F)cc5)C4)cc23)C1` [Compound 335, cis-3-methyl-N-(5-(cis-3-(4-(trifluoromethyl)phenyl)cyclobutoxy)-1H-indol-3-yl)cyclobutane-1-carboxamide], with 200 to 1000 nM.

As to `O=C(Nc1c[nH]c2ccc(O[C@H]3C[C@@H](c4ccc(C(F)(F)F)cc4)C3)cc12)C1CC(Cl)C1` (stereo partly drawn) [Compound 336, 3-chloro-N-(5-(cis-3-(4-(trifluoromethyl)phenyl)cyclobutoxy)-1H-indol-3-yl)cyclobutane-1-carboxamide], the EC50 fell in the range of 200 to 1000 nM.

In the case of `O=C(Nc1c[nH]c2ccc(O[C@H]3C[C@@H](c4ccc(C(F)(F)F)cc4)C3)cc12)[C@H]1C[C@@H](O)C1` [Compound 337, cis-3-hydroxy-N-(5-(cis-3-(4-(trifluoromethyl)phenyl)cyclobutoxy)-1H-indol-3-yl)cyclobutane-1-carboxamide], the EC50 was 200 to 1000 nM.

Regarding `O=C(Nc1c[nH]c2ccc(O[C@H]3C[C@@H](c4ccc(C(F)(F)F)cc4)C3)cc12)C1CC(O)C1` (stereo partly drawn) [Compound 338, 3-hydroxy-N-(5-(cis-3-(4-(trifluoromethyl)phenyl)cyclobutoxy)-1H-indol-3-yl)cyclobutane-1-carboxamide], the EC50 was in the range of 200 to 1000 nM. Then `N#C[C@H]1C[C@@H]1C(=O)Nc1c[nH]c2ccc(OCC[C@@H]3C[C@@H]4CN(CC(F)(F)F)C[C@@H]4C3)cc12` [Compound 340, (1S,2S)-2-cyano-N-(5-(2-((3aR,5r,6aS)-2-(2,2,2-trifluoroethyl)octahydrocyclopenta[c]pyrrol-5-yl)ethoxy)-1H-indol-3-yl)cyclopropane-1-carboxamide], with 1000 to 5000 nM; and `C[C@H]1C[C@H](C(=O)Nc2c[nH]c3ccc(OCC[C@@H]4C[C@@H]5CN(CC(F)(F)F)C[C@@H]5C4)cc23)C1` [Compound 341, (1r,3R)-3-methyl-N-(5-(2-((3aR,5r,6aS)-2-(2,2,2-trifluoroethyl)octahydrocyclopenta[c]pyrrol-5-yl)ethoxy)-1H-indol-3-yl)cyclobutane-1-carboxamide], with 200 to 1000 nM; and `COC1CC(C(=O)Nc2c[nH]c3ccc(OCC[C@@H]4C[C@@H]5CN(CC(F)(F)F)C[C@@H]5C4)cc23)C1` (stereo partly drawn) [Compound 345, 3-methoxy-N-(5-(2-((3aR,5r,6aS)-2-(2,2,2-trifluoroethyl)octahydrocyclopenta[c]pyrrol-5-yl)ethoxy)-1H-indol-3-yl)cyclobutane-1-carboxamide], with 200 to 1000 nM. Regarding `CC1(C)CC(C(=O)Nc2c[nH]c3ccc(OCC[C@@H]4C[C@@H]5CN(CC(F)(F)F)C[C@@H]5C4)cc23)C1` [Compound 346, 3,3-dimethyl-N-(5-(2-((3aR,5r,6aS)-2-(2,2,2-trifluoroethyl)octahydrocyclopenta[c]pyrrol-5-yl)ethoxy)-1H-indol-3-yl)cyclobutane-1-carboxamide], the EC50 was 200 to 1000 nM. On to `CC1(C)CC(C(=O)Nc2c[nH]c3ccc(CCOc4ccc(C(F)(F)F)cc4)cc23)C1` [Compound 348, 3,3-dimethyl-N-(5-(2-(4-(trifluoromethyl)phenoxy)ethyl)-1H-indol-3-yl)cyclobutane-1-carboxamide], for which the EC50 was 200 to 1000 nM. For `CC(=O)Nc1c[nH]c2ccc(OCCc3cnn4c3CCCC4)cc12` [Compound 349, N-(5-(2-(4,5,6,7-tetrahydropyrazolo[1,5-a]pyridin-3-yl)ethoxy)-1H-indol-3-yl)acetamide], the EC50 was 5000 to 100000 nM. Then `CC(=O)Nc1c[nH]c2ccc(OCCc3ccc(C(F)(F)F)cc3)c(Br)c12` [Compound 350, N-(4-bromo-5-(4-(trifluoromethyl)phenethoxy)-1H-indol-3-yl)acetamide], with 1000 to 5000 nM. `N#CC1CCC1C(=O)Nc1c[nH]c2ccc(OCc3ccc(C(F)(F)F)cc3)cc12` (stereo not drawn) [Compound 351, 2-cyano-N-(5-((4-(trifluoromethyl)benzyl)oxy)-1H-indol-3-yl)cyclobutane-1-carboxamide]: the EC50 was in the range of 200 to 1000 nM.

Regarding `COC1CC(C(=O)Nc2c[nH]c3ccc(OCc4ccc(C(F)(F)F)cc4)cc23)C1` (stereo not drawn) [Compound 352, 3-methoxy-N-(5-((4-(trifluoromethyl)benzyl)oxy)-1H-indol-3-yl)cyclobutane-1-carboxamide], the EC50 fell in the range of 40 to 200 nM.
